According to US20260364214A1, “MULTIVALENT FIBROBLAST ACTIVATION PROTEIN LIGANDS FOR TARGETED DELIVERY APPLICATIONS” (Philochem AG, priority 2022, published 2026):

Tested on: SK-RC-52.hFAP tumors
Assay: Quantitative biodistribution in SK-RC-52.hFAP tumor bearing mice
Format: in vivo, mouse (female athymic Balb/c AnNRj-Foxn1)
Conditions: i.v. 250 nmol/kg, 50 MBq/kg
Experimental: SK-RC-52.hFAP were grown to 80% confluence in RPMI-1640 with 10% fetal bovine serum (FBS) and 1% antibiotic-antimycotic and detached with Trypsin-EDTA (ethylenediaminetetraacetic acid) 0.05%. Tumor cells were resuspended in Hanks' Balanced Salt Solution medium. Aliquots of 5 million cells (100 μL of suspension) were injected subcutaneously in the right flank of female athymic Balb/c AnNRj-Foxn1 mice (6 to 8 wk of age).
Radiolabeling of ESV6-DOTAGA, Bi-ESV6-DOTAGA, Tri-ESV6-DOTAGA, Tetra-ESV6-DOTAGA, Hexa-ESV6-DOTAGA, Octa-ESV6-DOTAGA and FAP-2286 with lutetium-177 (a therapeutic radionuclide) was performed with different specific activities for three different studies (biodistribution, therapy and dose optimization).
Prior to the biodistribution study, precursors (100 nmol) were dissolved in 100 μL of milliQ water and diluted with 200 μL of sodium acetate (1 M in water, pH=4.5). 20 MBq of ^177Lu solution were added and the mixture was heated at 90 °C for 10 minutes, followed by dilution with […] of PBS to achieve final volume of 2 mL (20 doses of 100 μL each).
ESV6-DOTAGA, Bi-ESV6-DOTAGA, Tri-ESV6-DOTAGA, Tetra-ESV6-DOTAGA, Hexa-ESV6-DOTAGA, Octa-ESV6-DOTAGA and FAP-2286 were radiolabeled with ^177Lu as described above. Tumors were allowed to grow to an average volume of 300 mm^3. Mice were randomized and injected intravenously with radiolabeled preparations of ^177Lu-ESV6, ^177Lu-Bi-ESV6, ^177Lu-Tri-ESV6, Tetra-ESV6-DOTAGA, Hexa-ESV6-DOTAGA, Octa-ESV6-DOTAGA or ^177Lu-FAP-2286 (250 nmol/kg; 50 MBq/kg). Mice were euthanized at different time-points after the intravenous injection by CO2 asphyxiation. Tumors, organs, and blood were collected, weighted, and radioactivity was measured with a Packard Cobra Gamma Counter. Values are expressed as percent ID/g±SD [FIG. 4]. The % ID/g in the tumors was corrected considering the SK-RC-52.hFAP tumor growth rate.
Quantitative in vivo biodistribution of ^177Lu-ESV6-DOTAGA, ^177Lu-Bi-ESV6-DOTAGA, ^177Lu-Tri-ESV6-DOTAGA, ^177Lu-FAP-2286, Tetra-ESV6-DOTAGA, Hexa-ESV6-DOTAGA and Octa-ESV6-DOTAGA at different time points after intravenous administration (250 nmol/kg, 50 MBq/kg) in mice bearing SK-RC-52.hFAP tumors, are shown in Tables 1 to 4 and 10 to 12. Data are reported as % ID/g±standard deviation.
Tumor-to-organ ratios of ^177Lu-ESV6-DOTAGA, ^177Lu-Bi-ESV6-DOTAGA, ^177Lu-Tri-ESV6-DOTAGA, ^177Lu-FAP-2286, Tetra-ESV6-DOTAGA, Hexa-ESV6-DOTAGA and Octa-ESV6-DOTAGA, at different time points after intravenous administration (250 nmol/kg, 50 MBq/kg) in mice bearing SK-RC-52.hFAP tumors, are shown in Tables 5 to 8 and 13 to 15. Avg.=average; Std.d=standard deviation.

[1] = 6 h post injection, listed as 177Lu-TriESV6-DOTAGA, 360 min

For `N#CC1CC(F)(F)CN1C(=O)CNC(=O)c1ccnc2c(NC(=O)CCC(=O)NCCNC(=O)CCOCC(COCCC(=O)NCCNC(=O)CCC(=O)Nc3cccc4c(C(=O)NCC(=O)N5CC(F)(F)CC5C#N)ccnc34)(COCCC(=O)NCCNC(=O)CCC(=O)Nc3cccc4c(C(=O)NCC(=O)N5CC(F)(F)CC5C#N)ccnc34)NC(=O)CCC(C(=O)O)N3CCN(CC(=O)[O-])CCN(CC(=O)[O-])CCN(CC(=O)[O-])CC3)cccc12.[177Lu+3]` (centres unmarked) [^177Lu-Tri-ESV6-DOTAGA], the “Tumor to organs ratio, Liver” value (Liver, 96 h) was 41, the “Injected dose per gram, Liver” value (Liver, 96 h post injection) was 0.40 % ID/g and the “Tumor to organs ratio, Lung” value (6 h) was 128.8. For the same compound, the “Injected dose per gram, Lung” value (6 h post injection) was 0.38 % ID/g, the “Tumor to organs ratio, Lung” value (24 h) was 196.9 and the “Injected dose per gram, Lung” value (24 h post injection) was 0.10 % ID/g. For the same compound, the “Tumor to organs ratio, Lung” value (48 h) was 299.5, the “Injected dose per gram, Lung” value (48 h post injection) was 0.06 % ID/g and the “Tumor to organs ratio, Lung” value (72 h) was 477.1. The “Injected dose per gram, Lung” value (72 h post injection) was 0.11 % ID/g, the “Tumor to organs ratio, Lung” value (96 h) was 344 and the “Injected dose per gram, Lung” value (96 h post injection) was 0.06 % ID/g. The “Tumor to organs ratio, Muscle” value (6 h) was 187.0, the “Injected dose per gram, Muscle” value (6 h post injection) was 0.45 % ID/g and the “Tumor to organs ratio, Muscle” value (24 h) was 159.9. For the same compound, the “Injected dose per gram, Muscle” value (24 h post injection) was 0.18 % ID/g, the “Tumor to organs ratio, Muscle” value (48 h) was 1095.4 and the “Injected dose per gram, Muscle” value (48 h post injection) was 0.04 % ID/g. The “Tumor to organs ratio, Muscle” value (72 h) was 536.6, the “Injected dose per gram, Muscle” value (72 h post injection) was 0.04 % ID/g and the “Tumor to organs ratio, Muscle” value (96 h) was 514. The “Injected dose per gram, Muscle” value (96 h post injection) was 0.03 % ID/g, the “Tumor to organs ratio, Spleen” value (6 h) was 196.0 and the “Injected dose per gram, Spleen” value (6 h post injection, 360 min) was 0.30 % ID/g. For the same compound, the “Injected dose per gram, Spleen” value [1] was ~ 0.3 % ID/g, the “Tumor to organs ratio, Spleen” value (24 h) was 384.4 and the “Injected dose per gram, Spleen” value (24 h post injection) was 0.16 % ID/g. For the same compound, the “Tumor to organs ratio, Spleen” value (48 h) was 244.8, the “Injected dose per gram, Spleen” value (48 h post injection) was 0.10 % ID/g and the “Tumor to organs ratio, Spleen” value (72 h) was 92.1. For the same compound, the “Injected dose per gram, Spleen” value (72 h post injection) was 0.24 % ID/g, the “Tumor to organs ratio, Spleen” value (96 h) was 69 and the “Injected dose per gram, Spleen” value (96 h post injection) was 0.24 % ID/g. The “Tumor to organs ratio, Tail” value (6 h) was 48.4, the “Injected dose per gram, Tail” value (6 h post injection) was 1.06 % ID/g and the “Tumor to organs ratio, Tail” value (24 h) was 65.3. For the same compound, the “Injected dose per gram, Tail” value (24 h post injection) was 0.31 % ID/g, the “Tumor to organs ratio, Tail” value (48 h) was 136.9 and the “Injected dose per gram, Tail” value (48 h post injection) was 0.14 % ID/g. For the same compound, the “Tumor to organs ratio, Tail” value (72 h) was 108.9, the “Injected dose per gram, Tail” value (72 h post injection) was 0.19 % ID/g and the “Tumor to organs ratio, Tail” value (96 h) was 98. For the same compound, the “Injected dose per gram, Tail” value (96 h post injection) was 0.17 % ID/g, the “Injected dose per gram, Tumor” value (6 h post injection, 360 min) was 48.96 % ID/g and the “Injected dose per gram, Tumor” value [1] was ~ 49 % ID/g. The “Injected dose per gram, Tumor” value (24 h post injection) was 19.78 % ID/g, the “Injected dose per gram, Tumor” value (48 h post injection) was 16.64 % ID/g and the “Injected dose per gram, Tumor” value (72 h post injection) was 20.19 % ID/g. For the same compound, the “Injected dose per gram, Tumor” value (96 h post injection) was 16.26 % ID/g and the “tumor uptake / biodistribution profile, in words” value was “best biodistribution profile”.
